Source: patent US9062077B2, “Benzopyranobenzothiazinones and their use as fungicides, antibiotics and antitumor agents” (Leibniz-Institut fuer Naturstoff-Forschung und …, priority 2011, dated 2015)
pIC50: −log10 of the molar value.

Legend:
Format in all cases: cell-based
[1] = tested on: K-562 human leukemia cell lines; assay: antiproliferative assay, K-562; conditions: K562, read-out: GI50, inhibition of proliferation of K-562 human leukemia cell lines
Procedure: (§1) HeLa cells were used for the cytotoxic assay, HUVEC and K-562 cells were taken for the antiproliferative assay. The assays were conducted with phaeofungin C as described previously (Krauth et al., Bioorg. Med. Chem. 2010, 18, 1816-1821; Abdou et al., Phytochemistry 2010, 71, 110-116). Dose-response curves and IC50 values were then plotted and estimated, respectively.

HUVEC = assay: antiproliferative assay, HUVEC; conditions: Homo sapiens, read-out: GI50, inhibition of proliferation of HUVEC
Procedure: as §1

[2] = cytotoxic assay, HeLa cells; conditions: human, read-out: IC50, cytotoxic effects against HeLa cells
Procedure: as §1

- GI50 [1]: 2.4 µM
SMILES: Cc1cc(O)c(O)c(Oc2cc(C)c3c4c(c(=O)oc3c2O)Nc2c(O)cc(C)cc2S4)c1 [Phaeofungin C]
- GI50 (HUVEC): 7.5 µM
- pIC50 [2]: 5.00
